Assay results published in patent publication US20100183600A1, “RAF Inhibitors and Their Uses” (ARQULE, INC., priority 2008, published 2010).
Converted amounts (≈) assume the structure as drawn. “Also recorded” adds a separate entry of the source.

What was measured:
[1] = test system: p-Erk (A375); experiment: Cell-based phosphorylation assay with electroblotting readout; set-up: species or system human; settings: Homo sapiens, A-375; A375 cells, 1 hr
From the text: Compounds of the present invention have been screened for their ability to inhibit all isoforms, both wild-type and mutant of RAF kinases (A-RAF, B-RAF and C-RAF) in general, and the mutant B-RAF (V600E) in particular in human cancer cells. A375 is a human melanoma cell line that harbors the most common B-RAF mutation-V600E found in human cancers. The ability of compounds to inhibit RAF kinases in this assay is correlated with the reduction of MEK and ERK phosphorylation, and is therefore a direct indicator of potential in vivo therapeutic activity.
Materials: A375 cells from ATCC were maintained at 37° C., 5% CO2 in DMEM media supplemented with 10% fetal bovine serum, penicillin/streptomycin and fungizone. (Invitrogen)
Methods: Test compounds were dissolved and diluted 1:1000 in DMSO. A375 cells were seeded in six-well tissue culture plates at 5-8×10^5 per well and cultured at 37° C. for 24 h. Cells were incubated with compounds for one hour before being lysed in EPage™ loading buffer (Invitrogen). Lysates were electrophoresed on 8% EPage™ gels and transferred to polyvinylidene difluoride membranes. After incubations with primary and secondary antibodies, the immunostained proteins were detected and quantitated by an Odyssey infrared imager (LI-COR). Analysis was performed by non-linear regression to generate a dose response curve. The calculated IC50 value was the concentration of the test compound that causes a 50% decrease in phospho-MEK and phospho-ERK levels. The primary antibodies used were anti-MEK (Stressgen), anti-ERK (BD Biosciences), anti-phospho-ERK and anti-phospho-MEK (Cell Signaling). The secondary antibodies used were IRDYE800 anti-rabbit, IRDYE 800 anti-mouse (Rockland), AlexaFluor680 anti-mouse and AlexaFluoro680 anti-rabbit (Invitrogen).
A375 cells were treated with 0, 12, 37, 111, 333 and 1000 nM of indicated compounds for 1 hr. The levels of Phospho-ERK and total-ERK were accessed by immunoblotting.

[2] = test system: human tumors (A375); experiment: Xenograft model in athymic mice; type: in vivo, mouse
Method: Compound 17 was injected intra-peritoneally (IP) at 160 mg/kg and compound 19 was injected IP at 300 mg/kg (equivalent dose if expressed in mmole/kg, taking into account salt components).
A mouse xenograft model was performed according to the method of Jacob et al, Gene Ther Mol Biol 2004; 8:213-219 and Wilhelm et al, Cancer Research 2004; 64: 7099-7109.
Animal Care. Six week old female NCr nu/nu mice were purchased from Taconic Farms, Germantown, N.Y. and allowed to acclimate 1-2 weeks. Mice were housed in sterile micro isolator cages, 5 mice per cage and receive food and water ad libitum. All experimental procedures and surgical manipulations were approved in accordance with ArQule's Institutional Animal Care and Use Committee (IACUC).
Tumor Cell Lines and Model. Carcinoma cell lines were obtained from and propagated as recommended by American Type Tissue Culture (ATCC), (Manassas, Va.). Mice were implanted subcutaneously with 2.5-10×10^6 cells in 0.1 ml sterile Hanks Balanced Salt Solution (HBSS) in the upper right flank area. […] Tumor weight (mg) was calculated from the equation length×(width)^2)/2; this formula can also be used to calculate tumor volume assuming unit density 1 mg=1 mm^3 Percent inhibition or tumor growth inhibition (TGI) was calculated using the following formula: 1-[mean tumor value of treated/mean tumor value of control]×100. […]

[3] = Equilibrium solubility at varying pH (shake flask); type: physicochemical; settings: for solubility: 25 °C, thermodynamic from solid
Method: Solubility of the compounds was determined by the traditional shake flask method. Aliquots of solid compounds were mixed with an appropriate buffer of the desired pH and equilibrated by shaking at room temperature (˜25° C.) for 6-24 hours. Following aqueous buffers were used for the pH control: 0.1N HCl pH=1.2, 50 mM Lactate buffer pH=3.0, 50 mM Acetate buffer pH=5.0, and 100 mM Phosphate buffer pH 7.4. After equilibration, samples were filtered through a 0.45 um filter and analyzed by HPLC/UV against the calibration curves of standard solution.

[4] = test system: A375; experiment: Cell growth inhibition assay (MTS); type: cell-based; settings: Homo sapiens
Method: (§1) Compounds of the present invention have been tested for activity against a variety of cancer cell lines. The ability of compounds to inhibit cell growth in this assay is correlated with the reduction of dehydrogenase enzyme activity found in metabolically active cells.
(§2) Materials: A large variety of cancer cells from ATCC were maintained at 37° C., 5% CO2 in DMEM media supplemented with 10% fetal bovine serum, penicillin/streptomycin and fungizone (Invitrogen). NCM460 (Incell), a normal colon epithelial cell line, and human mammary epithelial cells (Cambrex) were maintained at 37° C., 5% CO2 in DMEM and HEBM media (Cambrex), respectively.
(§3) Methods: Test compounds were dissolved and diluted to 300× in DMSO then diluted 1:40 in DMEM. Cells were seeded into 96-well tissue culture plates at 1-5×10^3 per well and cultured at 37° C. for 24 h. Cells were incubated with test compounds for 72 hours followed by incubation with tetrazolium compound (3-(4,5-dimethylthiazol-2-yl)-5-(3-carboxymethoxyphenyl)-2-(4-sulfophenyl)-2H-tetrazolium, inner salt; MTS) and the electron coupling reagent, phenazine methosulfate (PMS) for 4 hr. […] The measurement of the absorbance of the formazan was assessed using an ENVISION™ (Perkin Elmer) microplate reader at 492 nm. The calculated IC50 value is the concentration of the test compound that causes a 50% decrease in the absorbance.

[5] = test system: DLD-1; experiment: Cell growth inhibition assay (MTS); type: cell-based; settings: Homo sapiens
Method: as §1, §2, §3

[6] = test system: RKO; experiment: Cell growth inhibition assay (MTS); type: cell-based; settings: Homo sapiens
Method: as §1, §2, §3

[7] = test system: SK-MEL-28; experiment: Cell growth inhibition assay (MTS); type: cell-based; settings: Homo sapiens
Method: as §1, §2, §3

[8] = test system: WM-266-4; experiment: Cell growth inhibition assay (MTS); type: cell-based; settings: Homo sapiens
Method: as §1, §2, §3

[9] = aqueous buffer (0.1N HCl), pH 1.2, simulated gastric fluid

With `Cn1ccc(S(=O)(=O)N2CCC[C@@H](Nc3nccc(-c4c(-c5cccc(OCOP(=O)(O)O)c5)nc5occn45)n3)C2)n1` [Compound 19, (R)-(3-(5-(2-(1-(1-methyl-1H-pyrazol-3-ylsulfonyl)piperidin-3-ylamino)pyrimidin-4-yl)imidazo[2,1-b]oxazol-6-yl)phenoxy)methyl dihydrogen phosphate] as the compound, how does the EC50 [1] read?
The EC50 was 0.095 µM.

What about the “anti-tumor activity in a xenograft cancer model” value ([2]; IP at 300 mg/kg, FIG. 3, 300 mg/kg) of the same compound?
Its value is “retain their anti-tumor activity; also recorded: equally effective”.

What about the solubility ([3]; aqueous buffer (50 mM acetate buffer), aqueous buffer, pH 5.0) of the same compound?
Its solubility is over 13000 µg/mL.

And the solubility ([3]; aqueous buffer (100 mM phosphate buffer), pH 7.4, aqueous buffer)?
The solubility was over 300000 µg/mL.

What about the solubility [3, 9] of the same compound?
The solubility was under 1300 µg/mL.

What about the “solubility in aqueous solution compared with compound 17” value ([3]; at or near biologically relevant pH) of the same compound?
The value was “dramatically more soluble”.

What about the GI50 ([4]; A-375, A375, skin) of the same compound?
The GI50 was 0.3 µM.

And the GI50 ([4]; A-375, A-375, melanoma)?
Its GI50 is 0.28 µM.

What about the GI50 ([5]; DLD-1, colon) of the same compound?
The GI50 was 19 µM.

What about the GI50 ([6]; colon carcinoma) of the same compound?
Its GI50 is 0.57 µM.

What about the GI50 ([7]; SK-MEL-28, malignant melanoma) of the same compound?
Its GI50 is 1.7 µM.

And the GI50 ([8]; WM 266-4, WM-266.4, melanoma)?
The GI50 was 0.13 µM.

Which results are given for `Cn1ccc(S(=O)(=O)N2CCC[C@@H](Nc3nccc(-c4c(-c5cccc(O)c5)nc5occn45)n3)C2)n1` [Compound 17, (R)-3-(5-(2-(1-(1-methyl-1H-pyrazol-3-ylsulfonyl)piperidin-3-ylamino)pyrimidin-4-yl)imidazo[2,1-b]oxazol-6-yl)phenol]?
EC50 [1]: 0.093 µM; anti-tumor activity in a xenograft cancer model ([2]; IP at 160 mg/kg, FIG. 3, 160 mg/kg): retain their anti-tumor activity; also recorded: equally effective; solubility ([3]; aqueous buffer (50 mM lactate buffer), aqueous buffer, pH 3.0): 10 µg/mL (≈ 19.2 µM); solubility [3, 9]: 1050 µg/mL (≈ 2020 µM); Aqueous solubility ([3]; pH 5.0): insoluble; Aqueous solubility ([3]; pH 7.4): insoluble; GI50 ([4]; A-375, 72 h, A375, 72 hours): < 0.0004 µM; GI50 ([5]; DLD-1, 72 hours): 12.1 µM; GI50 ([6]; 72 hours): 0.095 µM; GI50 ([7]; SK-MEL-28, 72 hours): 0.097 µM; GI50 ([8]; WM-266-4, 72 hours): 0.0006 µM
